Measurements taken from US20240279214A1, “ALPHA4 BETA7 INEGRIN ANTAGONISTS AND USES THEREOF” (XinThera, Inc., priority 2022, published 2024).
Where two headings read alike, the source gives them in different places.

What was measured:
[1] = ether bond, 13-membered ring, 100.0 °C
[2] = ether bond, 13-membered ring, 100.0 °C; remark: listed apart in the source

Compound: CCOC(=O)C[C@@H]1NC(=O)C(n2ccc3occc3c2=O)c2cc(ccc2F)Oc2cccc(C)c2-c2cc(C)c(F)c1c2 (stereo partly drawn)
- ring closure, yield after HPLC ([1]; from CCOC(=O)C[C@H](NC(=O)C(c1cc(Br)ccc1F)n1ccc2occc2c1=O)c1cc(-c2c(C)cccc2O)cc(C)c1F, CuI/(1S,2S)-N,N'-dimethylcyclohexane-1,2-diamine/K2CO3, dioxane, 30.0 mM, 4.0 h): 36.3%

Compound: CCOC(=O)C[C@@H]1NC(=O)C(n2cc(CCN3CC(F)C3)c(C(F)(F)F)cc2=O)c2cccc(c2)Oc2cc(C3CC3)cc(C)c2-c2cc1c(F)c(C(F)(F)F)c2 (stereo partly drawn)
- ring closure, yield after HPLC ([1]; from CCOC(=O)C[C@H](NC(=O)C(c1cccc(Br)c1)n1cc(CCN2CC(F)C2)c(C(F)(F)F)cc1=O)c1cc(-c2c(C)cc(C3CC3)cc2O)cc(C(F)(F)F)c1F, CuI/(1R,2R)-N1,N2-dimethylcyclohexane-1,2-diamine/K2CO3, dioxane, 40.0 mM, 16.0 h): 31.4%

Compound: CCOC(=O)C[C@@H]1NC(=O)C(n2cccc(-c3ccccc3)c2=O)c2cc(ccc2F)Oc2cccc(C)c2-c2cc(C)c(F)c1c2 (stereo partly drawn)
- ring closure, yield after HPLC ([1]; from CCOC(=O)C[C@H](NC(=O)C(c1cc(Br)ccc1F)n1cccc(-c2ccccc2)c1=O)c1cc(-c2c(C)cccc2O)cc(C)c1F, CuI/(1R,2R)-N,N'-dimethylcyclohexane-1,2-diamine/K2CO3, dioxane, 70.0 mM, 2.0 h): 48.2%

Compound: CCOC(=O)C[C@@H]1NC(=O)C(n2ccc3ccoc3c2=O)c2cc(ccc2F)Oc2cccc(C)c2-c2cc(C)c(F)c1c2 (stereo in doubt)
- ring closure, yield after HPLC ([1]; from CCOC(=O)C[C@H](NC(=O)C(c1cc(Br)ccc1F)n1ccc2ccoc2c1=O)c1cc(-c2c(C)cccc2O)cc(C)c1F, CuI/(1R,2R)-N,N'-dimethylcyclohexane-1,2-diamine/K2CO3, 1,4-dioxane, 37.5 mM, 4.0 h): 50.9%

Compound: CCOC(=O)C[C@@H]1NC(=O)C(n2cc(CCN3CC(F)C3)c(C(F)(F)F)cc2=O)c2cccc(c2)Oc2cc(Cl)cc(C)c2-c2cc1c(F)c(C(F)(F)F)c2 (stereo partly drawn)
- ring closure, yield after HPLC ([1]; from CCOC(=O)C[C@H](NC(=O)C(c1cccc(Br)c1)n1cc(CCN2CC(F)C2)c(C(F)(F)F)cc1=O)c1cc(-c2c(C)cc(Cl)cc2O)cc(C(F)(F)F)c1F, CuI/(1R,2R)-N1,N2-dimethylcyclohexane-1,2-diamine/K2CO3, dioxane, 34.0 mM, 4.0 h): 33%

Compound: CCOC(=O)C[C@@H]1NC(=O)C(n2ccc(C(F)(F)F)c(OC)c2=O)c2cc(ccc2F)Oc2cccc(C)c2-c2cc(C)c(F)c1c2 (stereo partly drawn)
- ring closure, isolated yield ([2]; from CCOC(=O)C[C@H](NC(=O)C(c1cc(Br)ccc1F)n1ccc(C(F)(F)F)c(OC)c1=O)c1cc(-c2c(C)cccc2O)cc(C)c1F, CuI/(1S,2S)-N,N'-dimethylcyclohexane-1,2-diamine/K2CO3, 1,4-dioxane, 13.5 mM): 67.3%

Compound: CCOC(=O)C[C@H](NC(=O)C(c1cc(Cl)cc(Br)c1)n1cc(CCN2CC(F)C2)c(C(F)(F)F)cc1=O)c1cc(-c2c(C)cccc2O)cc(C)c1F (stereo partly drawn)
- ring closure, isolated yield ([2]; the molecule shown is the open-chain precursor, CuI/(1R,2R)-N1,N2-dimethylcyclohexane-1,2-diamine/K2CO3, dioxane, 15.0 mM): 66.5%

Compound: CCOC(=O)C[C@@H]1NC(=O)C(n2cc(CCN3CC(F)C3)c(C(F)(F)F)cc2=O)c2cccc(c2)Oc2cc(C(F)(F)F)cc(C)c2-c2cc1c(F)c(C(F)(F)F)c2 (stereo partly drawn)
- ring closure, isolated yield ([2]; from CCOC(=O)C[C@H](NC(=O)C(c1cccc(Br)c1)n1cc(CCN2CC(F)C2)c(C(F)(F)F)cc1=O)c1cc(-c2c(C)cc(C(F)(F)F)cc2O)cc(C(F)(F)F)c1F, CuI/(1R,2R)-N1,N2-dimethylcyclohexane-1,2-diamine/K2CO3, dioxane, 22.0 mM, 16.0 h): 38.4%

Compound: CCOC(=O)C[C@@H]1NC(=O)C(n2cc(CCN3CC(F)C3)c(C(F)(F)F)cc2=O)c2cccc(c2)Oc2cc(C)cc(C)c2-c2cc1c(F)c(C(F)(F)F)c2 (stereo partly drawn)
- ring closure, isolated yield ([2]; from CCOC(=O)C[C@H](NC(=O)C(c1cccc(Br)c1)n1cc(CCN2CC(F)C2)c(C(F)(F)F)cc1=O)c1cc(-c2c(C)cc(C)cc2O)cc(C(F)(F)F)c1F, CuI/(1R,2R)-N1,N2-dimethylcyclohexane-1,2-diamine/K2CO3, dioxane, 28.3 mM, 16.0 h): 66.2%

Compound: CCOC(=O)C[C@@H]1NC(=O)C(n2cc(CCN3CC(F)C3)c(C(F)(F)F)cc2=O)c2cc(ccc2F)Oc2cccc(C)c2-c2cc(C(F)F)c(F)c1c2 (stereo in doubt)
- ring closure, isolated yield ([2]; from CCOC(=O)C[C@H](NC(=O)C(c1cc(Br)ccc1F)n1cc(CCN2CC(F)C2)c(C(F)(F)F)cc1=O)c1cc(-c2c(C)cccc2O)cc(C(F)F)c1F, CuI/(1R,2R)-N1,N2-dimethylcyclohexane-1,2-diamine/K2CO3, 1,4-dioxane, 17.3 mM, 16.0 h): 50.2%

Compound: ethyl 2-((5S,8S)-1^4,4^4-difluoro-5-(5-(2-(3-fluoroazetidin-1-yl)ethyl)-2-oxo-4-(trifluoromethyl)pyridin-1(2H)-yl)-2^6-methyl-6-oxo-3-oxa-7-aza-1,4(1,3),2(1,2)-tribenzenacyclooctaphane-8-yl)acetate
- ring closure, isolated yield ([2]; CuI/K2CO3/(1R,2R)-N1,N2-dimethylcyclohexane-1,2-diamine, 1,4-dioxane, 52.0 mM): 74.2%

Compound: CCOC(=O)C[C@@H]1NC(=O)C(n2cc(CCCN(C)C)c(C(F)(F)F)cc2=O)c2cc(ccc2F)Oc2cccc(C)c2-c2cc(C)c(F)c1c2 (stereo in doubt)
- ring closure, isolated yield ([2]; from CCOC(=O)C[C@H](NC(=O)C(c1cc(Br)ccc1F)n1cc(CCCN(C)C)c(C(F)(F)F)cc1=O)c1cc(-c2c(C)cccc2O)cc(C)c1F, CuI/K2CO3/(1R,2R)-N1,N2-dimethylcyclohexane-1,2-diamine, 1,4-dioxane, 62.0 mM, 16.0 h): 55.6%

Compound: CCOC(=O)C[C@@H]1NC(=O)C(n2cc(CCN3CC(F)C3)c(C(F)(F)F)cc2=O)c2cc(ccc2F)Oc2ccc(C)c(C)c2-c2cc(C)c(F)c1c2 (stereo in doubt)
- ring closure, isolated yield ([2]; from CCOC(=O)C[C@H](NC(=O)C(c1cc(Br)ccc1F)n1cc(CCN2CC(F)C2)c(C(F)(F)F)cc1=O)c1cc(-c2c(O)ccc(C)c2C)cc(C)c1F, CuI/(1R,2R)-N1,N2-dimethylcyclohexane-1,2-diamine/K2CO3, dioxane, 15.0 mM, 16.0 h): 64.7%

Compound: CCOC(=O)C[C@@H]1NC(=O)C(n2cc(CCN3CC(F)C3)c(C(F)(F)F)cc2=O)c2cccc(c2)Oc2cccc(C)c2-c2cc(C)c(F)c1c2 (stereo in doubt)
- ring closure, isolated yield ([2]; from CCOC(=O)C[C@H](NC(=O)C(c1cccc(Br)c1)n1cc(CCN2CC(F)C2)c(C(F)(F)F)cc1=O)c1cc(-c2c(C)cccc2O)cc(C)c1F, CuI/K2CO3, dioxane, 42.0 mM, 16.0 h): 33.4%

Compound: CCOC(=O)C[C@@H]1NC(=O)C(n2cc(CCN3CC(F)C3)c(C(F)(F)F)cc2=O)c2cc(ccc2F)Oc2cccc(C)c2-c2cc(F)c(F)c1c2 (stereo in doubt)
- ring closure, isolated yield ([2]; from CCOC(=O)C[C@H](NC(=O)C(c1cc(Br)ccc1F)n1cc(CCN2CC(F)C2)c(C(F)(F)F)cc1=O)c1cc(-c2c(C)cccc2O)cc(F)c1F, CuI/K2CO3/N1,N2-dimethylcyclohexane-1,2-diamine, 1,4-dioxane, 51.7 mM, 16.0 h): 44.4%

Compound: CCOC(=O)C[C@@H]1NC(=O)C(n2cc(CCN3CC(F)C3)c(C(F)(F)F)cc2=O)c2cc(ccc2F)Oc2cc(C(F)(F)F)cc(C)c2-c2cc(C)c(F)c1c2 (stereo partly drawn)
- ring closure, isolated yield ([2]; from CCOC(=O)C[C@H](NC(=O)C(c1cc(Br)ccc1F)n1cc(CCN2CC(F)C2)c(C(F)(F)F)cc1=O)c1cc(-c2c(C)cc(C(F)(F)F)cc2O)cc(C)c1F, CuI/K2CO3/(1R,2R)-N1,N2-dimethylcyclohexane-1,2-diamine, 1,4-dioxane, 30.0 mM, 16.0 h): 55%

Compound: CCOC(=O)C[C@@H]1NC(=O)C(n2cc(CCN3CC(F)C3)c(C(F)(F)F)cc2=O)c2cc(ccc2Cl)Oc2cccc(C)c2-c2cc(C)c(F)c1c2 (stereo in doubt)
- ring closure, isolated yield ([2]; from CCOC(=O)C[C@H](NC(=O)C(c1cc(Br)ccc1Cl)n1cc(CCN2CC(F)C2)c(C(F)(F)F)cc1=O)c1cc(-c2c(C)cccc2O)cc(C)c1F, CuI/K2CO3/(1R,2R)-N1,N2-dimethylcyclohexane-1,2-diamine, 1,4-dioxane, 26.7 mM, 16.0 h): 50.3%

Compound: CCOC(=O)C[C@H](NC(=O)C(c1cccc(Br)c1)n1cc(Cl)c(C(F)(F)F)cc1=O)c1cc(-c2c(C)cccc2O)cc(C(F)(F)F)c1F (stereo partly drawn)
- ring closure, isolated yield ([2]; the molecule shown is the open-chain precursor, CuI/(1R,2R)-N1,N2-dimethylcyclohexane-1,2-diamine/K2CO3, 1,4-dioxane, 23.3 mM): 71%
